What follows are molecules tested against T1, wild-type human ALK cytoplasmic domain (amino acids 1058-1620) (Homo sapiens, UniProt Q9UM73) (assay: ALK Inhibition in Enzyme Assay (Lance TR-FRET)). Settings: not given.
T1 construct: The cytoplasmic domain (amino acids 1058-1620) of wild-type human ALK; GST (N); made in house; host or cells: SF9 insect cells
Format: biochemical
Procedure: ALK Inhibition in Enzyme Assay
Kinase activity of the purified protein was assessed using a Lance® TR-FRET assay. […] The reaction was allowed to proceed for 90 minutes at room temperature and was then terminated with 20 mM EDTA in 50 mM Tris (pH 7.5), 100 mM NaCl, 0.05% BSA, and 0.1% Tween-20. Phosphorylation of the peptide substrate was detected using the Lance® detection reagents streptavidin-allophycocyanin (SA-APC) and Eu-W1024 anti-phosphotyrosine antibody (PT66) from Perkin Elmer Life Sciences (Waltham, Mass.). The plates were read on a RUBY star plate reader (BMG LABTECH, Cary, N.C.) with an excitation wavelength of 320 nm.

T1 sequence (Q9UM73 1058-1620): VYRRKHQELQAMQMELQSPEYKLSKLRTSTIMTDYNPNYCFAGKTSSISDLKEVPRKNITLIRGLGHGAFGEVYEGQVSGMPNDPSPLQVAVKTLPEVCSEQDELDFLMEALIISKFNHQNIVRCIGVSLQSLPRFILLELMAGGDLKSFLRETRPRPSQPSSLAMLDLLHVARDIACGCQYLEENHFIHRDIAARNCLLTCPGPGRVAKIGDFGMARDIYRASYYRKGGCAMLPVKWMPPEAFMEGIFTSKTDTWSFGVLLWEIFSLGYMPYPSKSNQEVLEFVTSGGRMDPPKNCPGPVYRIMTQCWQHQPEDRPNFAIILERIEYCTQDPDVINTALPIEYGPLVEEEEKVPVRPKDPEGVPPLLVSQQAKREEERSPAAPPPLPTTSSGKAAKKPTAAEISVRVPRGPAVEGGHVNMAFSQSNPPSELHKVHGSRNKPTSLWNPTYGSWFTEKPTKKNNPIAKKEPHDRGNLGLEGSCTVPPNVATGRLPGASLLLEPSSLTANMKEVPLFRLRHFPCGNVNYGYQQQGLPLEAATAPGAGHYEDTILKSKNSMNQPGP

| IC50 | Structure (SMILES) |
| --- | --- |
| < 50 nM | COc1cc(Nc2nccc(N3CCC[C@H](C(=O)NCc4cccc(N5CCOCC5)c4)C3)n2)cc(OC)c1OC [Example 85, (S)-N-(3-(4-morpholinyl)benzyl)-1-(2-((3,4,5-trimethoxyphenyl)amino)-4-pyrimidinyl)-3-piperidinecarboxamide] |

Same assay, conditions: 2 nM enzyme, ATP at 40 μM (Km apparent), 90 minutes, mean of three replicates; read-out: ALK IC50

| IC50 | Structure (SMILES) |
| --- | --- |
| 100 to 1000 nM | COc1cc(Nc2nccc(N3CCC[C@H](C(=O)NCc4ccc(C)c(Cl)c4)C3)n2)cc(OC)c1OC [Example 74, (S)-N-(3-chloro-4-methylbenzyl)-1-(2-((3,4,5-trimethoxyphenyl)amino)-4-pyrimidinyl)-3-piperidinecarboxamide] |
| < 50 nM | COc1cc(Nc2nccc(N3CCC[C@H](C(=O)NCc4ccc(OC(F)F)cc4)C3)n2)cc(OC)c1OC [Example 75, (S)-N-(4-(difluoromethoxy)benzyl)-1-(2-((3,4,5-trimethoxyphenyl)amino)-4-pyrimidinyl)-3-piperidinecarboxamide] |
| 50 to 100 nM | COc1cc(Nc2nccc(N3CCC[C@H](C(=O)NCc4ccc5[nH]c(C)cc5c4)C3)n2)cc(OC)c1OC [Example 76, (S)-N-((2-methyl-1H-indol-5-yl)methyl)-1-(2-((3,4,5-trimethoxyphenyl)amino)-4-pyrimidinyl)-3-piperidinecarboxamide] |
| 1000 to 5000 nM | COc1cc(Nc2nccc(N3CCC[C@H](C(=O)NCc4ccc5c(c4)OCCO5)C3)n2)cc(OC)c1OC [Example 77, (S)-N-(2,3-dihydro-1,4-benzodioxin-6-ylmethyl)-1-(2-((3,4,5-trimethoxyphenyl)amino)-4-pyrimidinyl)-3-piperidinecarboxamide] |
| 1000 to 5000 nM | COc1cc(Nc2nccc(N3CCC[C@H](C(=O)NCc4ccc(N5CCOCC5)cc4)C3)n2)cc(OC)c1OC [Example 78, (S)-N-(4-(4-morpholinyl)benzyl)-1-(2-((3,4,5-trimethoxyphcnyl)amino)-4-pyrimidinyl)-3-piperidinecarboxamide] |
| < 50 nM | COc1cc(Nc2nccc(N3CCC[C@H](C(=O)NCc4cccc(OC(F)F)c4)C3)n2)cc(OC)c1OC [Example 79, (S)-N-(3-(difluoromethoxy)benzyl)-1-(2-((3,4,5-trimethoxyphenyl)amino)-4-pyrimidinyl)-3-piperidinecarboxamide] |
| 5000 to 10000 nM | COc1cc(Nc2nccc(N3CCC[C@H](C(=O)NCc4cc(C)cc(C)c4)C3)n2)cc(OC)c1OC [Example 81, (S)-N-(3,5-dimethylbenzyl)-1-(2-((3,4,5-trimethoxyphenyl)amino)-4-pyrimidinyl)-3-piperidinecarboxamide] |
| 100 to 1000 nM | COc1cc(Nc2nccc(N3CCC[C@H](C(=O)NCc4ccc(C)c(C)c4)C3)n2)cc(OC)c1OC [Example 83, (S)-N-(3,4-dimethylbenzyl)-1-(2-((3,4,5-trimethoxyphenyl)amino)-4-pyrimidinyl)-3-piperidinecarboxamide] |
| 1000 to 5000 nM | COc1cc(Nc2nccc(N3CCC[C@H](C(=O)NCc4cccc(NS(C)(=O)=O)c4)C3)n2)cc(OC)c1OC [Example 84, (S)-N-(3-((methylsulfonyl)amino)benzyl)-1-(2-((3,4,5-trimethoxyphenyl)amino)-4-pyrimidinyl)-3-piperidinecarboxamide] |
| 100 to 1000 nM | COc1cc(Nc2nccc(N3CCC[C@H](C(=O)NCc4ccc(C(F)(F)F)c(F)c4)C3)n2)cc(OC)c1OC [Example 86, (S)-N-(3-fluoro-4-(tritluoromethyl)benzyl)-1-(2-((3,4,5-trimethoxyphenyl)amino)-4-pyrimidinyl)-3-piperidinecarboxamide] |
| 100 to 1000 nM | COc1cc(Nc2nccc(N3CCC[C@H](C(=O)NCc4cccc(OC(C)C)c4)C3)n2)cc(OC)c1OC [Example 87, (S)-N-(3-(1-methylethoxy)benzyl)-1-(2-((3,4,5-trimethoxyphenyl)amino)-4-pyrimidinyl)-3-piperidinecarboxamide] |
| 50 to 100 nM | COc1cc(Nc2nccc(N3CCC[C@H](C(=O)NCc4ccc(OC(C)C)cc4)C3)n2)cc(OC)c1OC [Example 88, (S)-N-(4-(1-methylethoxy)benzyl)-1-(2-((3,4,5-trimethoxyphenyl)amino)-4-pyrimidinyl)-3-piperidinecarboxamide] |
| 50 to 100 nM | COc1cc(Nc2nccc(N3CCC[C@H](C(=O)NCCc4cccc(C)c4)C3)n2)cc(OC)c1OC [Example 89, (S)-N-(2-(3-methylphenyl)ethyl)-1-(2-((3,4,5-trimethoxyphenyl)amino)-4-pyrimidinyl)-3-piperidinecarboxamide] |
| 100 to 1000 nM | COc1cc(Nc2nccc(N3CCC[C@H](C(=O)NCCc4ccc(Oc5ccccc5)cc4)C3)n2)cc(OC)c1OC [Example 90, (S)-N-(2-(4-phenoxyphenyl)ethyl)-1-(2-((3,4,5-trimethoxyphenyl)amino)-4-pyrimidinyl)-3-piperidinecarboxamide] |
| 50 to 100 nM | COc1cc(Nc2nccc(N3CCC[C@H](C(=O)NCCc4ccc(C(F)(F)F)cc4)C3)n2)cc(OC)c1OC [Example 91, (S)-N-(2-(4-(trifluoromethyl)phenyl)ethyl)-1-(2-((3,4,5-trimethoxyphenyl)amino)-4-pyrimidinyl)-3-piperidinecarboxamide] |
| 100 to 1000 nM | COc1cc(Nc2nccc(N3CCC[C@H](C(=O)NCCc4ccc(C)cc4)C3)n2)cc(OC)c1OC [Example 92, (S)-N-(2-(4-methylphenyl)ethyl)-1-(2-((3,4,5-trimethoxyphenyl)amino)-4-pyrimidinyl)-3-piperidinecarboxamide] |
| 100 to 1000 nM | COc1ccc(CCNC(=O)[C@H]2CCCN(c3ccnc(Nc4cc(OC)c(OC)c(OC)c4)n3)C2)cc1 [Example 93, (S)-N-(2-(4-methoxyphenyl)ethyl)-1-(2-((3,4,5-trimethoxyphenyl)amino)-4-pyrimidinyl)-3-piperidinecarboxamide] |
| < 50 nM | COc1cc(Nc2nccc(N3CCC[C@H](C(=O)NCCc4cccc(Br)c4)C3)n2)cc(OC)c1OC [Example 94, (S)-N-(2-(3-bromophenyl)ethyl)-1-(2-((3,4,5-trimethoxyphenyl)amino)-4-pyrimidinyl)-3-piperidinecarboxamide] |
| 100 to 1000 nM | COc1cc(Nc2nccc(N3CCC[C@H](C(=O)NCCc4cccc(F)c4)C3)n2)cc(OC)c1OC [Example 95, (S)-N-(2-(3-fluorophenyl)ethyl)-1-(2-((3,4,5-trimethoxyphenyl)amino)-4-pyrimidinyl)-3-piperidinecarboxamide] |
| < 50 nM | COc1cc(Nc2nccc(N3CCC[C@H](C(=O)NCCc4cccc(C(F)(F)F)c4)C3)n2)cc(OC)c1OC [Example 96, (S)-N-(2-(3-(trifluoromethyl)phenyl)ethyl)-1-(2-((3,4,5-trimethoxyphenyl)amino)-4-pyrimidinyl)-3-piperidinecarboxamide] |
| 1000 to 5000 nM | COc1cc(Nc2nccc(N3CCC[C@H](C(=O)NCCc4ccc(C)c(C)c4)C3)n2)cc(OC)c1OC [Example 97, (S)-N-(2-(3,4-dimethylphenyl)ethyl)-1-(2-((3,4,5-trimethoxyphenyl)amino)-4-pyrimidinyl)-3-piperidinecarboxamide] |
| 100 to 1000 nM | COc1cc(Nc2nccc(N3CCC[C@H](C(=O)NC[C@@H](C)c4ccccc4)C3)n2)cc(OC)c1OC [Example 98, (S)-N-((S)-2-phenylpropyl)-1-(2-((3,4,5-trimethoxyphenyl)amino)-4-pyrimidinyl)-3-piperidinecarboxamide] |

Reference: patent US8716281B2, “Pyrimidine compounds that inhibit anaplastic lymphoma kinase” (Amgen Inc., priority 2010, dated 2014)
